Data published in US4992421A, “Luteinizing hormone releasing hormone antagonist” (priority 1988, dated 1991).
pKi: −log10 of the molar value.

Legend:
[1] = in vivo; cited from earlier work
[2] = biological target: T1, LHRH receptors (rat pituitary membranes) (Rattus norvegicus, UniProt P30969); experiment: LHRH radioligand receptor binding assay; details: radioiodinated [D-Leu6-des Gly10]-LHRH ethyl amide 50 pM, 2 hours at 4° C., read-out: LHRH RECEPTOR BINDING AFFINITY KI
T1 construct: Pituitary membranes containing LHRH receptors are prepared in batches from quick-frozen rat pituitaries; tissue Hilltop Labs; host or cells: rat pituitary membranes
T1 sequence (P30969 1-327): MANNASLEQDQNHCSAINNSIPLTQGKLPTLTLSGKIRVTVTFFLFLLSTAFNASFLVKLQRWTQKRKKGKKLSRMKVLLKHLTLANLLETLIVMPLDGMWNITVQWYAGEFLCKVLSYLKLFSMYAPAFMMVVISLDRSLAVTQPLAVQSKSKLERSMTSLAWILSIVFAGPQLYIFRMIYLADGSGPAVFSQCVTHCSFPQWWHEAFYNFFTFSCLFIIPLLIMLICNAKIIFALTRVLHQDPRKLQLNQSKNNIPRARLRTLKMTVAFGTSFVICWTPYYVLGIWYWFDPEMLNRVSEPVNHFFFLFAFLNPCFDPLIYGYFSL
Procedure: Receptor Binding. A radioligand receptor binding assay is performed in a similar way to that described in the literature (J. Marion et al., Mol. Pharmacol. 19 399 (1981)). [D-Leu^6 -des Gly^10 ]-LHRH ethyl amide was radioiodinated by the chloramine-T method and used as the radioligand. Pituitary membranes containing LHRH receptors are prepared in batches from quick-frozen rat pituitaries obtained from Hilltop Labs. The radioligand (50 pM), receptors, and compounds to be tested are coincubated for 2 hours at 4° C. Bound ligand is separated from free ligand via centrifugation and aspiration. Compounds are tested at six half-log concentration increments, and the equilibrium dissociation constant (KI) is calculated from the concentration which displaces 50% of specifically bound radioligand.

serum testosterone = details: given orally to patients, 200 to 1200 mg daily; cited from earlier work

| Structure (SMILES) | bioavailable from the duodenum [1] | pKi [2] | suppression of serum testosterone (serum testosterone) |
| --- | --- | --- | --- |
| CCNC(=O)[C@@H]1CCCN1C(=O)[C@H](CCCNC(=N)N)NC(=O)[C@H](CC(C)C)NC(=O)[C@@H](CC(C)C)NC(=O)[C@H](Cc1ccc(O)cc1)NC(=O)[C@H](CO)NC(=O)[C@H](Cc1c[nH]c2ccccc12)NC(=O)[C@H](Cc1c[nH]cn1)NC(=O)[C@@H]1CCC(=O)N1 [leuprolide] | less than 1% |  |  |
| CC(=O)N1CCN(c2ccc(OCC3COC(Cn4ccnc4)(c4ccc(Cl)cc4Cl)O3)cc2)CC1 (stereo not drawn) [Ketoconazole] |  | 5.70 | dose dependent suppression of serum testosterone |
